Experimental findings from patent US6462037B1, “1,4-benzodiazepin-2-ones useful as HIV reverse transcriptase inhibitors” (Bristol-Myers Squibb Pharma Company, priority 1999, dated 2002) are described below.

Each structure is given as a SMILES string.

A word on the melting point: it is the temperature of the solid-liquid transition. As to `CCCCN1CC(=O)Nc2ccc(Cl)cc2C1C(F)(F)F` (stereo not shown) [compound 100, 7-Chloro-4-butyl-1,5-dihydro-5-(trifluoromethyl)-1,4-benzodiazepin-2-one], the melting point was 89 to 92 °C.
Regarding `CC(C)=CCN1CC(=O)Nc2ccc(Cl)cc2C1C(F)(F)F` (stereo not shown) [compound 101, 7-Chloro-4-(3-methyl-2-butenyl)-1,5-dihydro-5-(trifluoromethyl)-1,4-benzodiazepin-2-one], the melting point is 120 to 125 °C.
The same measure for `O=C1CN(Cc2ccccn2)C(C(F)(F)F)c2cc(Cl)ccc2N1` (stereo not shown) [compound 102, 7-Chloro-4-(2-pyridylmethyl)-1,5-dihydro-5-(trifluoromethyl)-1,4-benzodiazepin-2-one]: 184 to 187 °C; for `Cc1ncc(CN2CC(=O)Nc3ccc(Cl)cc3C2C(F)(F)F)s1` (stereo not shown) [compound 103, 7-Chloro-4-(2-methyl-5-thiazolylmethyl)-1,5-dihydro-5-(trifluoromethyl)-1,4-benzodiazepin-2-one]: 196 to 220 °C; for `Cc1ccc(CN2CC(=O)Nc3ccc(Cl)cc3C2C(F)(F)F)nc1` (stereo not shown) [compound 104, 7-Chloro-4-(5-methyl-2-pyridylmethyl)-1,5-dihydro-5-(trifluoromethyl)-1,4-benzodiazepin-2-one]: 200 to 205 °C.
Consider `O=C1CN(Cc2cccc(Cl)n2)C(C(F)(F)F)c2cc(Cl)ccc2N1` (stereo not shown) [compound 105, 7-Chloro-4-(6-chloro-2-pyridylmethyl)-1,5-dihydro-5-(trifluoromethyl)-1,4-benzodiazepin-2-one], for which the melting point was 184 to 186 °C.
With `CCCN1CC(=O)Nc2ccc(Cl)cc2C1C(F)(F)F` (stereo not shown) [compound 106, 7-Chloro-4-propyl-1,5-dihydro-5-(trifluoromethyl)-1,4-benzodiazepin-2-one], the melting point lay in the range of 123 to 124 °C.
`CCCCCCN1CC(=O)Nc2ccc(Cl)cc2C1C(F)(F)F` (stereo not shown) [compound 107, 7-Chloro-4-hexyl-1,5-dihydro-5-(trifluoromethyl)-1,4-benzodiazepin-2-one] had a melting point of 87 to 88 °C.
`CCCCCN1CC(=O)Nc2ccc(Cl)cc2C1C(F)(F)F` (stereo not shown) [compound 108, 7-Chloro-4-pentyl-1,5-dihydro-5-(trifluoromethyl)-1,4-benzodiazepin-2-one] came in with a melting point of 114 to 115 °C.
In the case of `O=C1CN(CCCc2ccccc2)C(C(F)(F)F)c2cc(Cl)ccc2N1` (stereo not shown) [compound 109, 7-Chloro-4-(3-phenylpropyl)-1,5-dihydro-5-(trifluoromethyl)-1,4-benzodiazepin-2-one] it was 89 to 91 °C.
In the case of `O=C1CN(Cc2ccccc2)C(C(F)(F)F)c2cc(Cl)ccc2N1` (stereo not shown) [compound 110, 7-Chloro-4-benzyl-1,5-dihydro-5-(trifluoromethyl)-1,4-benzodiazepin-2-one] it was 142 to 143 °C.
In the case of `CCCCCN1CC(=O)Nc2ccc(Cl)cc2C1C(F)(F)F` (stereo not shown) [compound 111, 7-Chloro-4-pentyl-1,5-dihydro-5-(trifluoromethyl)-1,4-benzodiazepin-2-one] it was 94 to 96 °C; in that of `Cc1ccccc1CN1CC(=O)Nc2ccc(Cl)cc2C1C(F)(F)F` (stereo not shown) [compound 113, 7-Chloro-4-(2-methylbenzyl)-1,5-dihydro-5-(trifluoromethyl)-1,4-benzodiazepin-2-one], 197 to 198 °C; in that of `O=C1CN(Cc2ccccc2Br)C(C(F)(F)F)c2cc(Cl)ccc2N1` (stereo not shown) [compound 114, 7-Chloro-4-(2-bromobenzyl)-1,5-dihydro-5-(trifluoromethyl)-1,4-benzodiazepin-2-one], 161 to 162 °C.
Take `O=C1CN(Cc2c(F)cccc2Cl)C(C(F)(F)F)c2cc(Cl)ccc2N1` (stereo not shown) [compound 115, 7-Chloro-4-(2-chloro-6-fluorobenzyl)-1,5-dihydro-5-(trifluoromethyl)-1,4-benzodiazepin-2-one]: the melting point lay in the range of 171 to 172 °C.
With `N#Cc1ccccc1CN1CC(=O)Nc2ccc(Cl)cc2C1C(F)(F)F` (stereo not shown) [compound 116, 7-Chloro-4-(2-cyanobenzyl)-1,5-dihydro-5-(trifluoromethyl)-1,4-benzodiazepin-2-one], the melting point lay in the range of 184 to 185 °C.
Turning to `O=C1CN(Cc2c(F)cccc2F)C(C(F)(F)F)c2cc(Cl)ccc2N1` (stereo not shown) [compound 117, 7-Chloro-4-(2,6-difluorobenzyl)-1,5-dihydro-5-(trifluoromethyl)-1,4-benzodiazepin-2-one], the melting point was in the range of 173 to 174 °C.
As for `COc1cccc(CN2CC(=O)Nc3ccc(Cl)cc3C2C(F)(F)F)c1` (stereo not shown) [compound 118, 7-Chloro-4-(3-methoxybenzyl)-1,5-dihydro-5-(trifluoromethyl)-1,4-benzodiazepin-2-one], the melting point lay in the range of 171 to 172 °C.
`N#Cc1cccc(CN2CC(=O)Nc3ccc(Cl)cc3C2C(F)(F)F)c1` (stereo not shown) [compound 120, 7-Chloro-4-(3-cyanobenzyl)-1,5-dihydro-5-(trifluoromethyl)-1,4-benzodiazepin-2-one] registered a melting point of 241 to 242 °C.
On to `COc1ccccc1CN1CC(=O)Nc2ccc(Cl)cc2C1C(F)(F)F` (stereo not shown) [compound 121, 7-Chloro-4-(2-methoxybenzyl)-1,5-dihydro-5-(trifluoromethyl)-1,4-benzodiazepin-2-one], for which the melting point fell in the range of 145 to 146 °C.
On to `O=C1CN(Cc2cccs2)C(C(F)(F)F)c2cc(Cl)ccc2N1` (stereo not shown) [compound 122, 7-Chloro-4-(2-thienylmethyl)-1,5-dihydro-5-(trifluoromethyl)-1,4-benzodiazepin-2-one], for which the melting point is 105 to 107 °C.
`O=C1CN(Cc2ccsc2)C(C(F)(F)F)c2cc(Cl)ccc2N1` (stereo not shown) [compound 123, 7-Chloro-4-(3-thienylmethyl)-1,5-dihydro-5-(trifluoromethyl)-1,4-benzodiazepin-2-one]: the melting point lay in the range of 148 to 150 °C.
With `O=C1CN(Cc2ccco2)C(C(F)(F)F)c2cc(Cl)ccc2N1` (stereo not shown) [compound 124, 7-Chloro-4-(2-furanylmethyl)-1,5-dihydro-5-(trifluoromethyl)-1,4-benzodiazepin-2-one], the melting point lay within 143 to 145 °C.
In turn, `CCC(C)CCN1CC(=O)Nc2ccc(Cl)cc2C1C(F)(F)F` (stereo not shown) [compound 125, 7-Chloro-4-(3-methylpentyl)-1,5-dihydro-5-(trifluoromethyl)-1,4-benzodiazepin-2-one] showed a melting point of 66 to 67 °C.
`COc1cccnc1CN1CC(=O)Nc2ccc(Cl)cc2C1C(F)(F)F` (stereo not shown) [compound 126, 7-Chloro-4-(3-methoxy-2-pyridylmethyl)-1,5-dihydro-5-(trifluoromethyl)-1,4-benzodiazepin-2-one] came in with a melting point of 146 to 148 °C.
The compound `O=C1CN(CC#CC2CC2)C(C(F)(F)F)c2cc(Cl)ccc2N1` (stereo not shown) [compound 127, 7-Chloro-4-(3-cyclopropyl-2-propynyl)-1,5-dihydro-5-(trifluoromethyl)-1,4-benzodiazepin-2-one] returned a melting point of 121 to 123 °C.
Compound `CCCCC1(C(F)(F)F)N=CC(=O)Nc2ccc(Cl)cc21` (stereo not shown) [compound 128, 7-Chloro-5-butyl-1,5-dihydro-5-(trifluoromethyl)-1,4-benzodiazepin-2-one] returned a melting point of 121 to 123 °C.
On to `CCCC#CCN1CC(=O)Nc2ccc(Cl)cc2C1C(F)(F)F` (stereo not shown) [compound 129, 7-Chloro-4-(2-hexynyl)-1,5-dihydro-5-(trifluoromethyl)-1,4-benzodiazepin-2-one], for which the melting point lay within 96 to 98 °C.
